ChEMBL document CHEMBL1126607, “Synthesis and binding characteristics of potential SPECT imaging agents for sigma-1 and sigma-2 binding sites” (J Med Chem, 1993)

Assays:
[1] = target: Sigma 2 receptor; test: Binding affinity was evaluated against sigma-2 binding site in rat liver using [3H]DTG -(+)-Dextrallorphan as radioligand
[2] = target: Sigma 2 receptor; test: The Binding affinity was evaluated using [3H]DTG -(+)-Dextrallorphan] in rat liver
[3] = target: Sigma 2 receptor; test: The Binding affinity was evaluated against sigma-2 binding site in rat liver using [3H]- -(+)-3-PPP

SMILES: CN(CCc1ccc(I)cc1)CCN1CCCC1
- Ki [1]: 43.1 nM

SMILES: Cc1ccc(NC(=N)Nc2ccc(C)cc2)cc1
- Ki [2]: 1540 nM

SMILES: CN(CCN1CCCC1)Cc1cccc(I)c1
- Ki [1]: 33.7 nM

SMILES: CN(CCc1cccc(Br)c1)CCN1CCCC1
- Ki [1]: 59.8 nM

SMILES: CN(CCN1CCCC1)Cc1cccc(Br)c1
- Ki [1]: 220 nM

SMILES: CN(CCc1cccc(I)c1)CCN1CCCC1
- Ki [1]: 9.1 nM

SMILES: CN(CCc1cccc(Cl)c1)CCN1CCCC1
- Ki [1]: 28.3 nM

SMILES: CN(CCN1CCCC1)Cc1ccccc1I
- Ki [1]: 48.2 nM

SMILES: CN(CCc1ccc(Cl)c(Cl)c1)CCN1CCCC1
- Ki [3]: 0.34 nM
- Ki [1]: 8.1 nM

SMILES: CN(CCc1ccc(F)cc1)CCN1CCCC1
- Ki [1]: 124 nM

SMILES: CN(CCc1ccc(Br)cc1)CCN1CCCC1
- Ki [1]: 32.5 nM

SMILES: CN(CCc1cccc(F)c1)CCN1CCCC1
- Ki [1]: 104 nM

SMILES: CN(CCc1ccc(Cl)cc1)CCN1CCCC1
- Ki [1]: 50.5 nM

SMILES: CN(CCN1CCCC1)Cc1ccc(I)cc1
- Ki [1]: 24.5 nM
